Test results taken from publication PMC8145110, “Design, Synthesis, and Antibacterial Screening of Some Novel Heteroaryl-Based Ciprofloxacin Derivatives as DNA Gyrase and Topoisomerase IV Inhibitors” (Pharmaceuticals, 2021).
Values after ≈ are worked out from the molar mass of the structure shown.

Tests used:
S. aureus = assay: MIC, two-fold serial dilution, S. aureus; format: cell-based, Staphylococcus aureus; conditions: Staphylococcus aureus; read-out: Minimum Inhibitory Concentration (MIC), S. aureus
Description: (§1) Table 2, using the reference drug ciprofloxacin, was presented with the MICs (minimal inhibitory concentrations) of these compounds against tested bacteria. […] The nature of aromatic substitution in the oxadiazole moiety tends to be correlated with higher antibacterial effects and the activity increased with (Ar) in the order of 2-pyridyl ≥ 3-pyridyl > 4-pyridyl > 2-Cl-Ph > 2-naphthyl.
(§2) On 96-well microtiter plates and […] of fresh bacterial culture of a single McFarland unit overnight, a double serial dilution of each compound […] in sterile standard saline was prepared for every single source well. Ciprofloxacin antibiotic (5 mg/mL^−1) and normal saline were included as standard references in each assay (see Appendix A).
(§3) In 96-well microtiter plates and […] of fresh bacterial culture of a single McFarland unit overnight, a double serial dilution of each compound […] in sterile standard saline was prepared for every single source well. Ciprofloxacin antibiotic (5 mg/mL^−1) and normal saline were included as standard reference in each assay. The plates were incubated at 37 °C overnight. As an indicator of bacterial growth, […] of p-iodonitrotetrazolium violet (INT) was added to each well and incubated at 37 °C for 30 min. […] The colorless tetrazolidium salt acts as an electron accepter and is reduced to a red colored formazan product by biological activity organisms. Where bacterial growth was inhibited, the solution in the well remained clear after incubation with INT.

E. coli = assay: MIC, two-fold serial dilution, E. coli; format: cell-based; conditions: Escherichia coli; read-out: Minimum Inhibitory Concentration (MIC), E. coli
Description: as §1, §2, §3

E. coli topoisomerase IV = target: T1, E. coli topoisomerase IV (Escherichia coli, UniProt P0AFI2+P20083); assay: E. coli topoisomerase IV assay; format: biochemical
T1 construct: purchased Inspiralis
T1 sequence (P0AFI2 whole entry): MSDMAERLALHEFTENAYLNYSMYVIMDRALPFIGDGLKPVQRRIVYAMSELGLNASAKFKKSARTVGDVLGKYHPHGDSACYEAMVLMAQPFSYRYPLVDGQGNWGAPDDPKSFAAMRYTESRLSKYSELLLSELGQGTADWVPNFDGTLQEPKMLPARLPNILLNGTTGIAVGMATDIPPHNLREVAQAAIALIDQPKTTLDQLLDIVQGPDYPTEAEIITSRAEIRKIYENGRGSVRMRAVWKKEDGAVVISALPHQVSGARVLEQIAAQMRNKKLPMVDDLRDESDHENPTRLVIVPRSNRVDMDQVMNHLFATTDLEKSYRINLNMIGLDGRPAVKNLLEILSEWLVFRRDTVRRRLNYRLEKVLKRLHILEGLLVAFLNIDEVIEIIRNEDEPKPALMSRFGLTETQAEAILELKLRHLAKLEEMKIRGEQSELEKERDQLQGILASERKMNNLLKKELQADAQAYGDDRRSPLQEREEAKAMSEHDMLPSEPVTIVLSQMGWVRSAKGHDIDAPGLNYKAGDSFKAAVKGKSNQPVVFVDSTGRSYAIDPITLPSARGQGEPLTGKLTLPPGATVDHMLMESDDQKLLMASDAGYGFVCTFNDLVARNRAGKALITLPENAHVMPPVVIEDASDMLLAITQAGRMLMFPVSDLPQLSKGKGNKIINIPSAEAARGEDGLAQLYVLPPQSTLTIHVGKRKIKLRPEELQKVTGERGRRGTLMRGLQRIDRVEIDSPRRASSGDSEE
T1 sequence (P20083 whole entry): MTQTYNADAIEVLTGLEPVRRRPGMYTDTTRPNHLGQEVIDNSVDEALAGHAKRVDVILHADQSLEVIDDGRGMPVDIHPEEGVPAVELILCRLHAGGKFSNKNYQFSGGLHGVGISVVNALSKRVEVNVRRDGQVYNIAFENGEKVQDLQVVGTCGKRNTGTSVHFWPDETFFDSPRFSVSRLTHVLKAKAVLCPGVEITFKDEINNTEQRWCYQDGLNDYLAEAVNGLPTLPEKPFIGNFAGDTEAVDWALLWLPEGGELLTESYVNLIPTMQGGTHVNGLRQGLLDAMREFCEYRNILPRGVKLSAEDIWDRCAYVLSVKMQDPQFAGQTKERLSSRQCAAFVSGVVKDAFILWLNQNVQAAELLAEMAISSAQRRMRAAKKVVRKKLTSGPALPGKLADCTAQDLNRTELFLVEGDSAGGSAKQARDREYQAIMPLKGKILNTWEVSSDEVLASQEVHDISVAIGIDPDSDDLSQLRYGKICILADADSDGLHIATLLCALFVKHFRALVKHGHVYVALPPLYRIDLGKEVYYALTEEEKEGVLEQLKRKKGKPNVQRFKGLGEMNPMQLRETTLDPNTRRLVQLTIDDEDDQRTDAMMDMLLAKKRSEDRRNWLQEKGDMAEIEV
Description: (§4) IC50 assay determination was carried out in accordance with the procedures previously stated (see Appendix A).
(§5) Inhibitory activities were determined in an assay from Inspiralis on streptavidin-coated 96-well microtiter plates from Thermo scientific Pierce. […] After washing off the unbound oligonucleotide, the enzyme test was performed. […] After that, the TF buffer (50 mM NaOAc with pH 5.0, 50 mM NaCl and 50 mM MgCl2) was added to terminate the enzymatic reaction. After additional incubation for 30 min at rt, during which biotin-oligonucleotide-plasmid triplex was 19 formed, the unbound plasmid was washed off using TF buffer and SybrGOLD in T10 buffer (10 mM Tris HCl with pH 8.0 and 1 mM EDTA) was added. […] Initial screening was done at 100 or 10 μM concentration of inhibitors. […] GraphPad Prism software was used to calculate the IC50 values. The result is given as the average value of three independent measurements. […] Determination of inhibitory activities on E. coli and S. aureus Topoisomerase IV IC50 values were determined in an assay from Inspiralis on streptavidin-coated 96-well microtiter plates from Thermo scientific Pierce. […] After washing off the unbound oligonucleotide, the enzyme test was performed. The reaction volume of 30 μL in buffer (40 mM HEPES KOH with pH 7.6, 100 mM potassium glutamate, 10 mM magnesium acetate, 10 mM DTT, 1 mM ATP, 0.05 mg/mL albumin) contained 1.5 U of topoisomerase IV from E. coli or S. aureus, 0.75 μg of pNO1 supercoiled plasmid, and 3 μL solution of the inhibitor in DMSO (10%) and Tween 20 (0.008%). […] After additional incubation for 30 min at rt, during which triplex (biotin-oligonucleotide-plasmid) was formed, the unbound plasmid was washed off using TF buffer and SybrGOLD in T10 buffer (10 mM Tris HCl with pH 8.0 and 1 mM EDTA) was added. […] Initial screening was done at 100 or 10 μM concentration of inhibitors. […] GraphPad Prism software was used to calculate the IC50 values. The result is given as the average value of three independent measurements.

[1] = test system: Candida albicans (ATCC 7102); assay: Kirby-Bauer disc diffusion, C. albicans; format: cell-based; conditions: % of fluconazole
Description: Furthermore, using fluconazole as a reference drug, 1–21 were tested in vitro for antifungal activity against A. flavus and C. albicans (Table 1).
(§6) The cultures used were collected from the Cairo University’s Microanalytical Centre, Faculty of Science. An updated Kirby-Bauer disc diffusion method was applied for antimicrobial activities of the tests 1–21 compounds [32, 33, 34, 35]. See Appendix A.
The cultures used were collected from the Cairo University’s Microanalytical Centre, Faculty of Science. An updated Kirby-Bauer disc diffusion method was applied for the antimicrobial activities of the tests for compounds 1–21 [28]. […] Plates inoculated with filamentous fungi as Aspergillus flavus were incubated at 25 °C for 48 h; Gram positive bacteria as Staphylococcus aureus (ATCC 12600, Microanalytical center, Cairo, Egypt), Bacillus subtilis (ATCC 6051); Gram negative bacteria as Escherichia coli (ATCC 11775), Pseudomonas aeuroginosa (ATCC 10145) were incubated at 35–37 °C for 24–48 h and yeast as Candida albicans (ATCC 7102) was incubated at 30 °C for 24–48 h and, then the diameters of the inhibition zones were measured in millimeters. […] For the disc diffusion, the zone diameters were measured with slipping calipers of the National Committee for Clinical Laboratory Standards, and the results are given in Table 1. […]

B. subtilis = assay: MIC, two-fold serial dilution, B. subtilis; format: cell-based; conditions: Bacillus subtilis; read-out: Minimum Inhibitory Concentration (MIC), B. subtilis
Description: as §1, §2, §3

[2] = Cell viability assay (MTT); format: cell-based; parameters: dose or concentration left out as unconfirmed; conditions: human, MCF-10A mammary gland epithelial cells, four days
Description: A human mammary gland epithelial cell line (MCF-10A) was used to conduct a cell viability assay. Compounds 2–6 were incubated with MCF-10A cells for four days, and the viability of the cells was determined using the 3-(4,5-dimethylthiazol-2-yl)-2,5-diphenyltetrazolium bromide (MTT) assay. All compounds had no cytotoxic effects, and the viability of the cells was greater than 85% for most of the compounds examined […], as shown in Table 4.
MTT Assay was performed to investigate the effect of compounds 2–6 on the viability of mammary epithelial cells (MCF-10A) (see Appendix A).

P. aeruginosa = assay: MIC, two-fold serial dilution, P. aeruginosa; format: cell-based; conditions: Pseudomonas aeruginosa; read-out: Minimum Inhibitory Concentration (MIC), P. aeruginosa
Description: as §1, §2, §3

E. coli DNA gyrase = target: T2, E. coli DNA gyrase (Escherichia coli, UniProt P0AES4+P0AES6); assay: E. coli DNA gyrase assay; format: biochemical
T2 construct: purchased Inspiralis
T2 sequence (P0AES4 whole entry, one chain of several): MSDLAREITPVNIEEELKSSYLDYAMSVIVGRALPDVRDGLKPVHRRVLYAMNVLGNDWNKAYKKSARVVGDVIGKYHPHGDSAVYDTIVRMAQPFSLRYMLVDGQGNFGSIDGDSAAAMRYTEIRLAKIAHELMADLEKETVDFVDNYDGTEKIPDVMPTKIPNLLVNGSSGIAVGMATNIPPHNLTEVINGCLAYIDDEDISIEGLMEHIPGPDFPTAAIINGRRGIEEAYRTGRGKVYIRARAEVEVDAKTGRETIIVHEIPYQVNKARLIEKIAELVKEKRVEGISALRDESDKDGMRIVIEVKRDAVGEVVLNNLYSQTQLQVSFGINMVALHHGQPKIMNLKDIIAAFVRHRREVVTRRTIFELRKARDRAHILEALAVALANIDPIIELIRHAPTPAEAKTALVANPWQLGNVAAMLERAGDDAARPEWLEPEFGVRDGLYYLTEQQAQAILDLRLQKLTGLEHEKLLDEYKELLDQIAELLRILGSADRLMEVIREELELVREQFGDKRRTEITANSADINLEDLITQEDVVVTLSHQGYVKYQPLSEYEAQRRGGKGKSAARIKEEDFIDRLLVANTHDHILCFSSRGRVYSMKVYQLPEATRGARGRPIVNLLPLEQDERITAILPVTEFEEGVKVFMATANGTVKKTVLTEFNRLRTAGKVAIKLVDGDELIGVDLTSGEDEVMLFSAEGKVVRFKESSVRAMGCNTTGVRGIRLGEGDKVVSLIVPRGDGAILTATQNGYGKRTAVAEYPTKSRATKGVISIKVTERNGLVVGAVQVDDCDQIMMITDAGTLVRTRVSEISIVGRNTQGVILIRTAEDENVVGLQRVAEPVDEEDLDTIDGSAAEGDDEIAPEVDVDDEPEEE
Description: as §4, §5

[3] = test system: most of the pathogens tested; parameters: method as in doi:10.1002/jhet.2760; conditions: cited from earlier work
[4] = test system: Bacillus subtilis (ATCC 6051); assay: Kirby-Bauer disc diffusion, B. subtilis; format: cell-based; conditions: % of ciprofloxacin
Description: (§7) An updated Kirby-Bauer disc diffusion method was used to assess the antimicrobial activity of the tested samples [32, 33, 34, 35]. Using ciprofloxacin as a reference drug, synthetic compounds 1–21 were tested in vitro for antibacterial activity against S. aureus and B. subtilis as Gram-positive strains and E. coli and P. aeruginosa as Gram-negative strains. […]. […].
as §6
(§8) The cultures used were collected from the Cairo University’s Microanalytical Centre, Faculty of Science. An updated Kirby-Bauer disc diffusion method was applied for the antimicrobial activities of the tests for compounds 1–21 [28]. […] Plates inoculated with filamentous fungi as Aspergillus flavus were incubated at 25 °C for 48 h; Gram positive bacteria as Staphylococcus aureus (ATCC 12600, Microanalytical center, Cairo, Egypt), Bacillus subtilis (ATCC 6051); Gram negative bacteria as Escherichia coli (ATCC 11775), Pseudomonas aeuroginosa (ATCC 10145) were incubated at 35–37 °C for 24–48 h and yeast as Candida albicans (ATCC 7102) was incubated at 30 °C for 24–48 h and, then the diameters of the inhibition zones were measured in millimeters. […]

[5] = test system: Pseudomonas aeuroginosa (ATCC 10145); assay: Kirby-Bauer disc diffusion, P. aeruginosa; format: cell-based, Pseudomonas aeruginosa; conditions: % of ciprofloxacin
Description: as §7, §6, §8

[6] = test system: Staphylococcus aureus (ATCC 12600); assay: Kirby-Bauer disc diffusion, S. aureus; format: cell-based; conditions: % of ciprofloxacin
Description: as §7, §6
The cultures used were collected from the Cairo University’s Microanalytical Centre, Faculty of Science. An updated Kirby-Bauer disc diffusion method was applied for the antimicrobial activities of the tests for compounds 1–21 [28]. Shortly after, 10 mL of fresh medium was grown to 100 μL bacteria/food until a count of 10^8 cells/mL or 10^5 cells/mL was achieved. One hundred μL microbial suspension was spread over agar plates that suited the broth in which it was held. The selected colonies of each organism that may play a pathogenic function should be from the primary agar plates and tested by the disc diffusion method for susceptibility. Plates inoculated with filamentous fungi as Aspergillus flavus were incubated at 25 °C for 48 h; Gram positive bacteria as Staphylococcus aureus (ATCC 12600, Microanalytical center, Cairo, Egypt), Bacillus subtilis (ATCC 6051); Gram negative bacteria as Escherichia coli (ATCC 11775), Pseudomonas aeuroginosa (ATCC 10145) were incubated at 35–37 °C for 24–48 h and yeast as Candida albicans (ATCC 7102) was incubated at 30 °C for 24–48 h and, then the diameters of the inhibition zones were measured in millimeters. Standard discs of ciprofloxacin (antibacterial agent), fluconazole (antifungal agent) served as positive controls for antimicrobial activity, but filter discs impregnated with 10 µL of solvent (distilled water, chloroform, DMSO) were used as a negative control. Blank paper disks (Schleicher and Schuell, Cytiva, Spain) with a diameter of 8.0 mm were impregnated with 10 µL of tested concentration of the stock solutions. When a filter paper disc impregnated with a tested chemical is placed on agar, the chemical will diffuse from the disc into the agar. This diffusion will place the chemical in the agar only around the disc. The solubility of the chemical and its molecular size will determine the size of the area of chemical infiltration around the disc. […] For the disc diffusion, the zone diameters were measured with slipping calipers of the National Committee for Clinical Laboratory Standards, and the results are given in Table 1. […]

[7] = test system: Escherichia coli (ATCC 11775); assay: Kirby-Bauer disc diffusion, E. coli; format: cell-based; conditions: % of ciprofloxacin
Description: as §7, §6
The cultures used were collected from the Cairo University’s Microanalytical Centre, Faculty of Science. An updated Kirby-Bauer disc diffusion method was applied for the antimicrobial activities of the tests for compounds 1–21 [28]. Shortly after, 10 mL of fresh medium was grown to 100 μL bacteria/food until a count of 10^8 cells/mL or 10^5 cells/mL was achieved. One hundred μL microbial suspension was spread over agar plates that suited the broth in which it was held. The selected colonies of each organism that may play a pathogenic function should be from the primary agar plates and tested by the disc diffusion method for susceptibility. Plates inoculated with filamentous fungi as Aspergillus flavus were incubated at 25 °C for 48 h; Gram positive bacteria as Staphylococcus aureus (ATCC 12600, Microanalytical center, Cairo, Egypt), Bacillus subtilis (ATCC 6051); Gram negative bacteria as Escherichia coli (ATCC 11775), Pseudomonas aeuroginosa (ATCC 10145) were incubated at 35–37 °C for 24–48 h and yeast as Candida albicans (ATCC 7102) was incubated at 30 °C for 24–48 h and, then the diameters of the inhibition zones were measured in millimeters. […] For the disc diffusion, the zone diameters were measured with slipping calipers of the National Committee for Clinical Laboratory Standards, and the results are given in Table 1. […]

[8] = target: S. aureus topoisomerase IV; parameters: method as in PMID 29206345; conditions: value given in method; read-out: IC50 of internal standard, S. aureus topoisomerase IV; cited from earlier work

Row | Structure (SMILES) | MIC (S. aureus) | MIC (E. coli) | MIC (B. subtilis) | viability at 4 days [2] | MIC (P. aeruginosa) | IC50 (E. coli DNA gyrase) | melting point | antibacterial activity relative to ciprofloxacin, S. aureus [6] | antibacterial activity relative to ciprofloxacin, E. coli [7] | further results
1 | O=C(O)c1cn(C2CC2)c2cc(N3CCN(Cn4nc(-c5ccc6ccccc6c5)oc4=S)CC3)c(F)cc2c1=O [Compound 3, 1-Cyclopropyl-6-fluoro-7-[4-(5-naphthalen-2-yl-2-thioxo-[1,3,4]oxadiazol-3-ylmethyl)-piperazin-1-yl]-4-oxo-1,4-dihydro-quinoline-3-carboxylic acid] | 0.125 µg/mL (≈ 0.219 µM) | 0.125 µg/mL (≈ 0.219 µM) | 0.125 µg/mL (≈ 0.219 µM) | 85% | 0.05 µg/mL (≈ 0.0875 µM) | 86 ± 9 nM | 244 °C | – | – | remaining activity at 1 µM (E. coli topoisomerase IV; read-out: RA (%), residual activity of E. coli Topo IV): 58%; antifungal activity against C. albicans relative to fluconazole [1]: 33%
2 | O=C(O)c1cn(C2CC2)c2cc(N3CCN(Cn4nc(CN5CCSCC5)oc4=S)CC3)c(F)cc2c1=O [I] | – | – | – | – | – | – | – | – | – | times more potent than ampicillin [3]: > 41 times
3 | O=C(O)c1cn(C2CC2)c2cc(N3CCN(CN4C(=O)SC(=Cc5ccccc5)C4=O)CC3)c(F)cc2c1=O [Compound 16, 7-[4-(5-Benzylidene-2,4-dioxo-thiazolidin-3-ylmethyl)-piperazin-1-yl]-1-cyclo-propyl-6-fluoro-4-oxo-1,4-dihydro-quinoline-3-carboxylic acid] | – | – | – | – | – | – | 237 °C | 85% | 93% | antibacterial activity relative to ciprofloxacin, B. subtilis [4]: 93%; antibacterial activity relative to ciprofloxacin, P. aeruginosa [5]: 93%
4 | CO[C@@H]1[C@@H](OC(N)=O)[C@@H](O)[C@H](Oc2ccc3c(O)c(NC(=O)c4ccc(O)c(CC=C(C)C)c4)c(=O)oc3c2C)OC1(C)C [Novobiocin] | – | – | – | – | – | – | – | – | – | IC50 [8]: 26700 nM
5 | O=C(O)c1cn(C2CC2)c2cc(N3CCN(Cn4nc(-c5ccccn5)oc4=S)CC3)c(F)cc2c1=O [Compound 4, 1-Cyclopropyl-6-fluoro-4-oxo-7-[4-(5-pyridin-2-yl-2-thioxo-[1,3,4]oxadiazol-3-yl-methyl)-piperazin-1-yl]-1,4-dihydro-quinoline-3-carboxylic acid] | 0.035 µg/mL (≈ 0.067 µM) | 0.062 µg/mL (≈ 0.119 µM) | 0.125 µg/mL (≈ 0.239 µM) | 89% | 0.062 µg/mL (≈ 0.119 µM) | 42 ± 7 nM | 218 °C | equipotent | equipotent | IC50 (E. coli topoisomerase IV): 1470 ± 200 nM
